Molecular target: T1, ORP1 (Homo sapiens, UniProt Q9BXW6)
T1 construct: ORP1(534-950); host or cells: E. coli BL21(DE3)
T1 sequence (Q9BXW6 534-950): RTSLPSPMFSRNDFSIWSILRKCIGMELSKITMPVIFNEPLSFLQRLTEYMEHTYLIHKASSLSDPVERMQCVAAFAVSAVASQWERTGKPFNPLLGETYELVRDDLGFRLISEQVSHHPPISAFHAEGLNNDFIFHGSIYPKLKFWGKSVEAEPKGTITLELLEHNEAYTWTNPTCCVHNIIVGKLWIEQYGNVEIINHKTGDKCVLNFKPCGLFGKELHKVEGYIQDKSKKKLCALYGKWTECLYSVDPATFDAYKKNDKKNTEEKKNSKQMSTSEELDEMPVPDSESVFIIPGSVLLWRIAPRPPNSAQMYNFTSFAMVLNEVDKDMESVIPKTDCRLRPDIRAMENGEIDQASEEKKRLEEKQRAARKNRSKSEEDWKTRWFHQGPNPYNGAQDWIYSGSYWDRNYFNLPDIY
Experiment: Effect on intrinsic protein fluorescence, ORP1
Conditions: protein 1 µM, excitation 280 nm
Description: Effect of spirooxepinoindoles on intrinsic protein fluorescence
Figure S12: Spirooxepinoindoles 21a and 15f affect intrinsic protein fluorescence in dose-dependent fashion:
Respective proteins (1 µM) were incubated with the compounds at different doses. Proteins were excited at 280 ± 10 nm and fluorescence spectra were measured from 315 ± 20 nm to 600 ± 20 nm with a step size of 2 nm. A) STARD1 and 21a. B) ORP1 and 21a. C) ORP2 and 21a. D) ORP2 and 15f.
(1 picture or pasted object on this page, not shown here)
Superdex 75 pg (Cytiva) using an ÄKTA Explorer (Cytiva) in buffer containing 10 mM Tris -HCl, pH 8, 150 mM NaCl, 5 % glycerol and 2 mM DTT.
Fluorescence intensity and polarisation
Fluorescence intensity and polarisation (FP) experiments were performed in a buffer containing 20 mM HEPES pH 7.5, 300 mM NaCl, 0.01 %v/v Tween-20, 0.5% glycerol and 2 mM DTT in a final volume of 30 µl in black, flat-bottom, non-binding 384-well plates (Corning). All compounds were dispensed using the LabCyte Echo 550 Liquid handler. […] For competition experiments, 20 nM 22-NBD-cholesterol or 80 nM 25-NBD-cholesterol was mixed with protein and incubated with desired concentrations of screening compounds (Table S4) The fluorescence polarisation signal was measured using a Spark Cyto multimode microplate reader (Tecan) with filters set at 485 ± 20 nm for excitation and at 535 ± 20 nm for emission. […]

C[C@]12CC[C@@H]3C[C@H]1CC[C@@]21C(=Nc2ccc(-c4ccccc4)cc21)O3 [Compound 21a] was tested, and the “Quenching of intrinsic fluorescence of ORP1” value was “dose-dependently quenches”.

Source: article PMC11758220, “Identification of a Privileged Scaffold for Inhibition of Sterol Transport Proteins through the Synthesis and Ring Distortion of Diverse, Pseudo-Natural Products” (ACS Central Science, 2025)
